From patent US9943525B2, “Composition for reducing cell senescence comprising Rho-kinase inhibitor and use thereof” (Samsung Electronics Co., Ltd., priority 2014, dated 2018) come the findings set out here.

The subject of test [1] is senescent myoblasts (passage 11). As to the kind of experiment: microscopic observation of cell number and shape. Format: cell-based, Human. The conditions noted are these: 4 weeks, FIG. 13; for numbers of cells: vs DMSO. As to the method: Myoblast cell lines (Human Skeletal Muscle Myoblasts, Lonza CC-2580 LOT:0000387550) were cultured in SkBM™-2 Basal Media (Lonza CC-3246) including an SkGM™-2 SingleQuots™ Kit (Lonza CC-3244) on plates coated with Collagen Type I (Greiner Bio One, 658950) in a 5% CO2 incubator at 37° C. Subculture was initiated when the cells were approximately 85% confluent in plates. Early subcultures were performed at a split ratio of 1:4, and later subcultures were performed at a split ratio of 1:2. When cell doubling time was 14 days, the cells were regarded as senescent myoblasts (cell passages 10 to 12).
Senescent cells were seeded on each well of a 6-well plate coated with Collagen Type I (Greiner Bio One, 657950) in a concentration of 2,000 cells/well. Senescent myoblasts (passage 11) were cultured in the presence of 5 μM of Y-27632, 5 μM of FASUDIL, and 0.5 μM of SR3677 for 4 weeks in a 5% CO2 incubator at 37° C. The culture media were changed at every 4 days with new culture media supplemented with 5 μM of Y-27632, 5 μM of FASUDIL, and 0.5 μM of SR3677. A negative control group was prepared in the same manner, except that 0.05 (v/v) % of DMSO was used.
FIG. 13 illustrates microscopic images of cells cultured in the presence of 5 μM of Y-27632, 5 μM of FASUDIL, and 0.5 μM of SR3677. In “a” of FIG. 13, a portion was selected and marked by a rectangle with a dashed line, and the selected portion was enlarged in a1 for closer examination of the cultured cells. In a1 of FIG. 13, a portion was selected, marked by a rectangle with a dashed line, enlarged in a2 for much closer examination of the cultured cells (Scale bar 20 μm).

Test [2] has as its system senescent fibroblasts (after 37 cell passages). Put plainly: lipofuscin autofluorescence by flow cytometry. It is filed as cell-based, human. The conditions noted are these: 4 weeks, vs control, p<0.05, FIG. 9. As to the method: In addition, amounts of lipofuscin accumulated in the cultured cells were measured. Senescent cells (After 37 cell passages) were cultured for 4 weeks in a 5% CO2 incubator at 37° C. in the presence of 5 μM of Y-27632, 5 μM of FASUDIL, and 0.5 μM of SR3677. The culture media were changed at every 4 days with new culture media supplemented with 5 μM of Y-27632, 5 μM of FASUDIL, and 0.5 μM of SR3677. Since lipofuscin has autofluorescence characteristics, light having a wavelength of 488 nm was irradiated to the cells by using a FACSCaliber (Beckton Dickinson) and light emission at 520 nm was measured. The results are analyzed using a Cell Quest 3.2 software (Beckton Dickinson). FIG. 9 is a graph displaying amounts of lipofuscin in fibroblasts (after 37 cell passages) cultured in the presence of Rho-kinase inhibitors Y-27632 (5 μM), Fasudil (5 μM), and SR3677 (0.5 μM). […] In FIG. 9, * indicates statistically significant (p<0.05).

Test [3] shares this test system. Put plainly: cell cycle analysis (Muse Cell Cycle Kit). It is filed as cell-based, human. As to conditions: 5 μM; 4 weeks; vs DMSO control; FIG. 4. As to the method: The senescent fibroblasts (after 37 cell passages) were cultured in culture media respectively supplemented with 5 μM of Y-27632 (A), 5 μM of FASUDIL (B), and 0.5 μM of SR3677 (C) for 4 weeks in a 5% CO2 incubator at 37° C. The culture media were changed with new culture media respectively supplemented with 5 μM of Y-27632, 5 μM of FASUDIL, and 0.5 μM of SR3677 at every 4 days. Cell cycles were measured using a Muse™ Cell Cycle Kit (MERCK Millipore, MCH100106) in accordance with manufacturer's manuals. Light having a wavelength of 488 nm was irradiated to the cells using a Muse™ Cell Analyzer (MERCK Millipore) and light emission at 520 nm was measured. The results were analyzed using Cell Quest 3.2 software (Beckton Dickinson). The control group was prepared in the same manner, except that 0.05 (v/v) % of DMSO was added thereto.

Test [4] has the same test system. Put plainly: microscopic observation of cell number and shape. As to conditions: 5 μM, 4 weeks, FIG. 3. Format: cell-based, human. Here is the method:
In addition, after senescent fibroblasts (after 37 cell passages) were cultured in the same culture media and same conditions as described above in the presence of 0.05 (v/v) % of DMSO and Y-27632 (5 μM), shapes of the cells were observed using a microscope. FIG. 3 is a microscopic image illustrating cell shapes of senescent fibroblasts (after 37 cell passages) cultured in the presence of Y-27632 for 4 weeks.

For test [5], the system named is full-thickness punch-biopsy wounds on the dorsal skin of old (19 months old) male C57BL/6J mice. As to the kind of experiment: cutaneous wound healing assay in aged mice. It is filed as in vivo, mouse. As to conditions: 0.5 mL 10 μM in 30% Pluronic gel applied to wounds every day, FIG. 23. As to the method:
To further test whether ROCK inhibitor can promote cutaneous wound healing in old (19 months old) male mice (C57BL/6J mice), four full-thickness punch-biopsy wounds (8 mm in diameter)(four wound sites/mouse, five mice/group) were created on the dorsal skin of mouse, 0.5 mL 10 μM Y-27632 in 30% Pluronic gel (Pluronic F-127 Sigma, P2443-1KG) was applied to wounds every day, and then covered the wounds with Telfa sponges (Kendall Health Care, Mansfield, Mass., USA). DMSO was used as a control. All animal studies were reviewed and approved by the […] Animal Care and Use Committee of SKKU School of Medicine (SUSM). SUSM is an Association for Assessment and Accreditation of Laboratory Animal Care international accredited facility and abides by the Institute for Laboratory Animal Research guide. Wounds were photographed for 10 days. Immunohistochemistry analyses were performed on 5 μm paraffin embedded sections as described previously (Lin et. al., 2004. Developmental Biology 270, 474-486). Primary antibodies used for immunohistochemistry were mouse anti-α-smooth muscle actin (Sigma, F3777-2ML, 1:500), and mouse anti-PCNA (Santa Cruz Biotechnology, SC-56, 1:500). Secondary antibodies used for immunohistochemistry were EnVisionTM Detection System (DAKO, […]). […]

Consider `O=S(=O)(c1cccc2cnccc12)N1CCCNCC1` [FASUDIL, 5-(1,4-diazepane-1-sulfonyl)isoquinoline], for which, in test [1] (5 μM), the cell shape result is on record as “spindle shape generally found in young cells” and the numbers of cells result is on record as “greater than that of the control group”. Also, in test [2] (5 μM), the “amounts of lipofuscin in cells” value was “significantly reduced”. Also, the “number of cells in G0/G1 phases” value in test [3] was “less than that of cells in S and G2/M phases”.
In the case of `C[C@@H](N)[C@H]1CC[C@H](C(=O)Nc2ccncc2)CC1` [Y-27632, (1R,4R)-4-((R)-1-aminoethyl)-N-(pyridin-4-yl)cyclohexanecarboxamide], the cell shape result in test [1] (5 μM) and in test [4] was “spindle shape generally found in young cells” in each case. Moreover, the numbers of cells result in test [1] (5 μM) and in test [4] (vs DMSO) was “greater than that of the control group” in each case. Further, the “wound healing (wound appearance)” value in test [5] (day 10, DMSO-treated wounds still showed remnants of scabs) is “near completion”. In test [5] (early points (days 3), vs DMSO, P<0.01), the “wound healing process (wound size)” value was “markedly accelerated”. Moreover, in test [2] (5 μM), the “amounts of lipofuscin in cells” value was “significantly reduced”. Besides, the “number of cells in G0/G1 phases” value in test [3] is “less than that of cells in S and G2/M phases”.
Regarding `CN(C)CCOc1cc(-c2cn[nH]c2)ccc1NC(=O)C1COc2ccccc2O1` (stereo not drawn) [SR3677], in test [1] (0.5 μM), the cell shape result is “spindle shape generally found in young cells” and the numbers of cells result was “greater than that of the control group”. Moreover, the “amounts of lipofuscin in cells” value in test [2] (0.5 μM) is on record as “significantly reduced”.
